In ChEMBL document CHEMBL5126590 (Bioorg Med Chem, 2022):
Active and inactive are the calls of the source. The rule behind the calls is not given here.

Tests used:
[1] = target: T1, Interstitial collagenase (Homo sapiens) (UniProt P03956); assay: Binding affinity to human 15N-labelled MMP-1 catalytic domain (100 to 269 residues) expressed in Escherichia coli BL21 Star (DE3) assessed as chemical shift perturbation at F97 residue at 500 uM by 1H-15N HSQC spectra analysis
T1 sequence (whole entry): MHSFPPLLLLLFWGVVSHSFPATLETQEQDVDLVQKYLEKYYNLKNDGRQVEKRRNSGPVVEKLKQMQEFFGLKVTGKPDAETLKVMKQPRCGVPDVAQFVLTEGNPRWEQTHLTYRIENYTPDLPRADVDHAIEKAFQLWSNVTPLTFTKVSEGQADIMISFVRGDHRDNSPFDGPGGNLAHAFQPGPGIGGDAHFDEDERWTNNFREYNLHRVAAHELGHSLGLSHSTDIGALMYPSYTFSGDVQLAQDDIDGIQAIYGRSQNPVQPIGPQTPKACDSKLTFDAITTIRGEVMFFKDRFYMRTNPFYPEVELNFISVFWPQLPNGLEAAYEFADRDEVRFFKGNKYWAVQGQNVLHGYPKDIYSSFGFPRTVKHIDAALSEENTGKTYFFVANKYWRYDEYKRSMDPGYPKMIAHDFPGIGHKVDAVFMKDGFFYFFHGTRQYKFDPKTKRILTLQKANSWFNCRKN

[2] = target: T1, Interstitial collagenase (Homo sapiens); assay: (§1) Binding affinity to human MMP-1 catalytic domain (100 to 269 residues) expressed in Escherichia coli BL21 Star (DE3) by SPR analysis; conditions: DDE = dose-dependent effect
Interstitial collagenase = target: T2, Interstitial collagenase (Homo sapiens, UniProt P03956); assay: as §1
T2 sequence (P03956 whole entry): T1 sequence (whole entry)

[3] = target: Heat shock cognate 71 kDa protein (Mus musculus) (UniProt P63017); assay: Binding affinity to HSP73 in mouse B16-F10 cell lysate by pull down assay; type: subcellular
B16-F10 [4] = assay: Binding affinity to MMP-1 in mouse B16-F10 cell lysate by Western blot analysis; type: subcellular
B16-F10 [5] = assay: Binding affinity to MMP-1 in mouse B16-F10 cell lysate by pull down assay; type: subcellular
[6] = target: Actin, cytoplasmic 1 (Mus musculus) (UniProt P60710); assay: Binding affinity to beta-actin in mouse B16-F10 cell lysate by Western blot analysis; type: subcellular
[7] = target: Heat shock cognate 71 kDa protein (Mus musculus) (UniProt P63017); assay: Binding affinity to HSP73 in mouse B16-F10 cell lysate by Western blot analysis; type: subcellular
[8] = target: Mitogen-activated protein kinase kinase kinase 11 (Mus musculus) (UniProt Q80XI6); assay: Binding affinity to MLK3 in mouse B16-F10 cell lysate by pull down assay; type: subcellular
[9] = target: Actin, cytoplasmic 1 (Mus musculus) (UniProt P60710); assay: Binding affinity to beta-actin in mouse B16-F10 cell lysate by pull down assay; type: subcellular
[10] = target: T1, Interstitial collagenase (Homo sapiens); assay: Binding affinity to human 15N-labelled MMP-1 catalytic domain (100 to 269 residues) expressed in Escherichia coli BL21 Star (DE3) assessed as chemical shift perturbation at E99 residue at 500 uM by 1H-15N HSQC spectra analysis
[11] = target: T1, Interstitial collagenase (Homo sapiens); assay: Inhibition of MMP-1 (unknown origin) using FRET substrate preincubated for 5 mins followed by substrate addition and measured after 30 mins by fluorescence assay; conditions: dose 25-100 µM, time 35.0 min, DDE = dose-dependent effect

Heat shock cognate 71 kDa protein (Mus musculus), sequence (P63017 whole entry): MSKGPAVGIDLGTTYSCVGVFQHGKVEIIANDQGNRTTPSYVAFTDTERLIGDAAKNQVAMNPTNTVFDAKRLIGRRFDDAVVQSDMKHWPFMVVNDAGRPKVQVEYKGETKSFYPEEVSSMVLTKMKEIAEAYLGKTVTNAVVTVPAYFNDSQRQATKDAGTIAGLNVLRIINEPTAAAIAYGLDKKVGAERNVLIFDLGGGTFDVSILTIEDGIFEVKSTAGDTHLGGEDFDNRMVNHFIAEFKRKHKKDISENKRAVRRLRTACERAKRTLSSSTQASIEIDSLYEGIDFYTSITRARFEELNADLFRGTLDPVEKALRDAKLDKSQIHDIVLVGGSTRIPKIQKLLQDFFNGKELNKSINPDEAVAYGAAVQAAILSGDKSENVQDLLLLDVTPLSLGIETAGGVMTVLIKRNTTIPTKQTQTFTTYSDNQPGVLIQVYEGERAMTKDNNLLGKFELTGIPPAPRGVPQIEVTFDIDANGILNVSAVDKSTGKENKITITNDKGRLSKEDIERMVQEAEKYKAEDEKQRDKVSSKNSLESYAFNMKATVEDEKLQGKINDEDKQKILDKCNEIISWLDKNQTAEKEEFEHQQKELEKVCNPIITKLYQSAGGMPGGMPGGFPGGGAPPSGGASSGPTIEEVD
Mitogen-activated protein kinase kinase kinase 11 (Mus musculus), sequence (Q80XI6 whole entry, looked up): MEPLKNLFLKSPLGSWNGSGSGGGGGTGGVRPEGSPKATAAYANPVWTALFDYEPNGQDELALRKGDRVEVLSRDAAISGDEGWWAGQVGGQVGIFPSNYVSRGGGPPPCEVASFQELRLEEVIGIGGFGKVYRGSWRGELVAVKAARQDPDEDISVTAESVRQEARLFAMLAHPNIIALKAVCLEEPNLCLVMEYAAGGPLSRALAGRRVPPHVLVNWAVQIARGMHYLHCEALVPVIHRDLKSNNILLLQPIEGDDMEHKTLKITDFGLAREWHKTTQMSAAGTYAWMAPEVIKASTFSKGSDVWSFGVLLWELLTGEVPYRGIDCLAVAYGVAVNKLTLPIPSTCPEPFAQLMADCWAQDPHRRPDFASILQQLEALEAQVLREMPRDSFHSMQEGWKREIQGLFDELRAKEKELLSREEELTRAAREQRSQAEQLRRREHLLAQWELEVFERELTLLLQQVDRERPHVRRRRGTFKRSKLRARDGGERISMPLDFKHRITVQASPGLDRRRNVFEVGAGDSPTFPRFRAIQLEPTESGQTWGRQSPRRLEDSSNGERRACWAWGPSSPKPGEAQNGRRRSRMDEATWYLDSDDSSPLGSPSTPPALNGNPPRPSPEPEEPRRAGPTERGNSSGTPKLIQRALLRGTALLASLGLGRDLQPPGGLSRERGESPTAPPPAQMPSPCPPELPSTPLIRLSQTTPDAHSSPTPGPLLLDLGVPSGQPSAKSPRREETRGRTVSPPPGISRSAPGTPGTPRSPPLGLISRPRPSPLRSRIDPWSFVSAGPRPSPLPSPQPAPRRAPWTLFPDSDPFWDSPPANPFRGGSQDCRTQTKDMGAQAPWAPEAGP

SMILES	Activity [1] [ppm]	Activity [2]	Kd (Interstitial collagenase) [µM]	Activity [3]	Activity (B16-F10 [4])	Activity (B16-F10 [5])	Activity [6]	Activity [7]	Activity [8]	Activity [9]	Activity [10] [ppm]	inhibition [11]
COc1c(-c2ccc(O)c(O)c2)oc2cc(O)cc(O)c2c1=O [3-O-METHYLQUERCETIN]	0.05	Dde	21.7	Active	Active	Active	Active	Active	Active	Active	> 0.03	Dde
O=c1c(O)c(-c2ccc(O)c(O)c2)oc2cc(O)cc(O)c12	–	Dde	–	–	–	–	–	–	–	–	–	Dde
